What all share (assay): cells
Assay [1] deals with H1299. Type of assay: cell-based, human. The settings on record: read-out: GI50 H1299 lung (−p53).
Assay [2] has as its system NCI-H460. Type of assay: cell-based, human. The settings on record: read-out: GI50 NCI-H460 lung.
Assay [3] concerns HT29. Type of assay: cell-based, human. The following applies: read-out: GI50 HT29 colorectal.
Assay [4] concerns SKOV3. Type of assay: cell-based, human. The following applies: read-out: GI50 SKOV3 ovary.
Assay [5] deals with ten-member panel of human carcinomas. Type of assay: cell-based. The settings on record: read-out: GI50.
Assay [6] concerns A549. Type of assay: cell-based, human. The following applies: read-out: GI50 A549 lung (+p53).
Assay [7] has as its system DU-145. Type of assay: cell-based, human. The following applies: read-out: GI50 DU-145 prostate.
Assay [8] concerns Hep3b. Type of assay: cell-based, human. The following applies: read-out: GI50 Hep3b liver.
Assay [9] deals with SF-268. Type of assay: cell-based, human. The settings on record: read-out: GI50 SF-268 CNS.
Assay [10] relates to HCT-15. Type of assay: cell-based, human. The following applies: read-out: GI50 HCT-15 colorectal.
For assay [11], the system named is MCF7. Type of assay: cell-based, human. The settings on record: read-out: GI50 MCF7 breast.

With `CON(CCCCc1ccc(N(CCCl)CCCl)cc1)C1OCC(O)C(O)C1O` (mixture of isomers) [Compound 53, N-Methoxy-4-(4-N′,N′-bis(2-chloroethyl)amino)phenylbutylamino-D-riboside], the GI50 – broadly, the concentration giving 50% growth inhibition – was 3.6 ± 0.3 µM in assay [1]; 5.9 ± 0.7 µM in assay [2]; 2.3 ± 0.1 µM in assay [3]; 2 ± 0.1 µM in assay [4]; 1.8 to 5.9 µM in assay [5]; 2.8 ± 0.1 µM in [6]. Besides, the GI50 in assay [7] came to 3.8 ± 0.6 µM; in assay [8] it was 2.4 ± 0.1 µM; in assay [9] it was 1.9 ± 0.1 µM; in assay [10] it was 1.8 ± 0.1 µM; in assay [11] it was 1.1 ± 0.1 µM.

Turning to `CON(CCCCc1ccc(N(CCCl)CCCl)cc1)C1CC(O)C(O)C(C)O1` (stereo not drawn) [Compound 50], the GI50 in [1] is 4.8 ± 0.5 µM; in assay [2], 5.7 ± 0.6 µM; in [3] it was 3.2 ± 0.2 µM; in assay [4], 3.2 ± 0.1 µM; in assay [6], 3.1 ± 0.2 µM; in [7], 5.5 ± 0.1 µM. In addition, the GI50 in assay [8] was 3.8 ± 0.2 µM; in assay [9], 2.3 ± 0.8 µM; in assay [10], 2.5 ± 0.2 µM; in assay [11] it was 3.1 ± 0.2 µM.

With `CON(CCCCc1ccc(N(CCCl)CCCl)cc1)C1OC(C)C(OC(C)=O)C(OC(C)=O)C1OC(C)=O` (stereo not drawn) [Compound 52], the GI50 was 5 ± 0.4 µM in assay [1]; 7.8 ± 0.8 µM in [2]; 4.3 ± 0.2 µM in assay [3]; 3.9 ± 0.1 µM in [4]; 3.5 ± 0.1 µM in assay [6]; 4.5 ± 0.1 µM in assay [7]. Moreover, the GI50 is 4.6 ± 0.2 µM in assay [8], 3 ± 0.1 µM in assay [9], 3.7 ± 0.2 µM in assay [10] and 3.2 ± 0.6 µM in assay [11].

Regarding `CON(CCCCc1ccc(N(CCCl)CCCl)cc1)C1OC[C@H](O)[C@H](O)[C@@H]1O` (stereo partly drawn) [Compound 54, N-Methoxy-4-(4-N′,N′-bis(2-chloroethyl)amino)phenylbutylamino-L-riboside], the GI50 in assay [1] stood at 3.3 ± 0.2 µM; in assay [2], 5.7 ± 0.6 µM; in assay [3] it was 2.2 ± 0.1 µM; in assay [4], 2 ± 0.1 µM; in [6], 2.4 ± 0.1 µM; in [7], 3.7 ± 0.1 µM. Also, the concentration for 50% growth inhibition (GI50) was 2.4 ± 0.1 µM in [8], 2.1 ± 0.2 µM in assay [9], 2.1 ± 0.1 µM in assay [10] and 0.97 ± 0.02 µM in assay [11].

As for `CON(CCCCc1ccc(N(CCCl)CCCl)cc1)C1OC(COCc2ccccc2)C(OCc2ccccc2)C1OCc1ccccc1` (stereo not drawn) [Compound 57], the GI50 in assay [1] was 82 ± 7 µM; in assay [2], > 100 µM; in assay [3], > 100 µM; in assay [4], > 100 µM; in [6], > 100 µM; in assay [7], > 100 µM. Besides, the concentration for 50% growth inhibition (GI50) in [8], in [9], in [10] and in assay [11] was > 100 µM in each case.

Take `CON(CCCCc1ccc(N(CCCl)CCCl)cc1)[C@H]1O[C@H](CO)[C@H](O)[C@H](O)[C@@H]1O` [Compound 58]: the concentration for 50% growth inhibition (GI50) in [1] was determined as 3 ± 0.3 µM; in [2] it was 5 ± 0.6 µM; in assay [3] it was 1.8 ± 0.4 µM; in assay [4] it was 2 ± 0.1 µM; in assay [6], 2.6 ± 0.1 µM; in [7], 3.3 ± 0.1 µM. For the same molecule, the GI50 in [8] was determined as 2.4 ± 0.1 µM; in assay [9], 1.7 ± 0.1 µM; in assay [10], 2.2 ± 0.1 µM; in assay [11], 1.5 ± 0.3 µM.

As to `CON(CCCCc1ccc(N(CCCl)CCCl)cc1)[C@@H]1O[C@@H](CO)[C@@H](O)[C@@H](O)[C@H]1O` [Compound 59], the 50% growth inhibitory concentration (GI50) in assay [1] is 2.4 ± 0.2 µM; in [2], 4.3 ± 0.4 µM; in [3], 1.9 ± 0.1 µM; in [4] it was 2 ± 0.1 µM; in [6] it was 2.7 ± 0.2 µM; in [7], 3.4 ± 0.1 µM. Further, the 50% growth inhibitory concentration (GI50) amounted to 2.6 ± 0.1 µM in assay [8], 1.7 ± 0.1 µM in assay [9], 2 ± 0.1 µM in [10] and 1.8 ± 0.3 µM in assay [11].

Regarding `CON(CCCCc1ccc(N(CCCl)CCCl)cc1)C1OCC(O)C1O` (stereo not drawn) [Compound 61], the GI50 in assay [1] is 0.72 ± 0.03 µM; in assay [2], 1.9 ± 0.5 µM; in assay [3], 1.2 ± 0.1 µM; in [4] it was 2.1 ± 0.1 µM; in [6], 2 ± 0.2 µM; in assay [7] it was 2.1 ± 0.1 µM. Further, the GI50 in [8] was 1.4 ± 0.1 µM; in assay [9], 1.3 ± 0.1 µM; in [10] it was 0.82 ± 0.05 µM; in assay [11] it was 0.87 ± 0.09 µM.

As to `CON(CCCCc1ccc(N(CCCl)CCCl)cc1)C1OCC(O)C(O)C1O` (stereo not drawn) [Compound 62], the GI50 is 0.83 ± 0.04 µM in assay [1]; 4.5 ± 0.4 µM in assay [2]; 1.6 ± 0.1 µM in assay [3]; 2.2 ± 0.1 µM in assay [4]; 2.3 ± 0.1 µM in assay [6]; 2.3 ± 0.1 µM in assay [7]. The GI50 in assay [8] was 1.5 ± 0.1 µM; in [9] it was 1.4 ± 0.1 µM; in assay [10] it was 0.9 ± 0.05 µM; in assay [11], 0.91 ± 0.09 µM.

Consider `CON(CCCCc1ccc(N(CCCl)CCCl)cc1)C1OCC(O)C(O)C1O` (stereo not drawn) [Compound 63], for which the 50% growth inhibitory concentration (GI50) amounted to 0.93 ± 0.03 µM in assay [1]; 2.9 ± 0.3 µM in assay [2]; 1.5 ± 0.1 µM in [3]; 2.4 ± 0.1 µM in [4]; 2.2 ± 0.1 µM in assay [6]; 2.2 ± 0.1 µM in assay [7]. The GI50 in [8] turned out to be 1.6 ± 0.1 µM; in assay [9] it was 1.5 ± 0.1 µM; in assay [10], 0.83 ± 0.04 µM; in assay [11], 1.2 ± 0.2 µM.

For the molecule `C[C@H]1OC(N(O)CCCCc2ccc(N(CCCl)CCCl)cc2)[C@H](O)[C@@H](O)[C@H]1O` (stereo partly drawn) [Compound 66, N-Hydroxy-4-(4-N′,N′-bis(2-chloroethyl)amino)phenylbutylamino-D-fucoside], the GI50 in assay [1] came out at 2.6 ± 0.1 µM; in assay [2], 4.9 ± 0.2 µM; in assay [3], 4.6 ± 0.1 µM; in assay [4], 4.7 ± 0.1 µM; in assay [6] it was 6.4 ± 0.3 µM; in assay [7] it was 5.7 ± 0.4 µM. Moreover, the GI50 is 3.6 ± 0.3 µM in assay [8], 1.4 ± 0.1 µM in assay [9], 3.8 ± 0.3 µM in assay [10] and 2.7 ± 0.1 µM in assay [11].

On to `O=C1O[C@@H]2[C@@H](O)[C@H](N(O)CCCCc3ccc(N(CCCl)CCCl)cc3)O[C@@H]2[C@@H]1O` [Compound 67, N-Hydroxy-4-(4-N′,N′-bis(2-chloroethyl)amino)phenylbutylamino-D-glucurono-6,3-lactonide], for which the GI50 in assay [1] is 3.8 ± 0.1 µM; in assay [2] it was 13.1 ± 0.4 µM; in [3] it was 9.9 ± 0.2 µM; in assay [4] it was 10.1 ± 0.4 µM; in assay [6], 10.4 ± 0.6 µM; in assay [7], 14.8 ± 0.8 µM. Besides, the GI50 was 7.2 ± 0.3 µM in [8], 3.1 ± 0.1 µM in assay [9], 8.5 ± 0.5 µM in [10] and 4.1 ± 0.2 µM in assay [11].

As to `O[C@@H]1[C@H](O)COC(N(O)CCCCc2ccc(N(CCCl)CCCl)cc2)[C@@H]1O` (stereo partly drawn) [Compound 68, N-Hydroxy-4-(4-N′,N′-bis(2-chloroethyl)amino)phenylbutylamino-D-riboside], the GI50 in assay [1] is 1.6 ± 0.2 µM; in assay [2] it was 1.04 ± 0.06 µM; in assay [3] it was 0.9 ± 0.05 µM; in [4] it was 0.89 ± 0.04 µM; in assay [6], 0.84 ± 0.05 µM; in assay [7] it was > 5 µM. Besides, the GI50 in assay [8] is > 5 µM; in [9], 1.5 ± 0.1 µM; in assay [10] it was 0.87 ± 0.05 µM; in [11], 3.2 ± 0.2 µM.

Turning to `C[C@H]1O[C@@H](NNC(=O)CCCc2ccc(N(CCCl)CCCl)cc2)[C@H](O)[C@@H](O)[C@H]1O` [Compound 72, 4-(4-N′,N′-bis(2-chloroethyl)amino)phenylbutylhydrazido-β-D-fucoside], the 50% growth inhibitory concentration (GI50) in [1] worked out at 8.7 ± 0.3 µM; in assay [2], 51 ± 2 µM; in assay [3] it was 16.7 ± 0.7 µM; in assay [4] it was 22 ± 1 µM; in assay [6] it was 28 ± 1 µM; in [7] it was 24 ± 2 µM. The GI50 in [8] was 11 ± 0.3 µM; in assay [9] it was 5.8 ± 0.1 µM; in [10], > 100 µM; in [11] it was 6.3 ± 0.2 µM.

As for `O=C(CCCc1ccc(N(CCCl)CCCl)cc1)NN[C@@H]1O[C@H]2[C@H](OC(=O)[C@H]2O)[C@H]1O` [Compound 73, 4-(4-N′,N′-bis(2-chloroethyl)amino)phenylbutylhydrazido-D-glucurono-6,3-lactonide], the GI50 turned out to be 12.9 ± 0.7 µM in assay [1]; 43 ± 4 µM in assay [2]; 30 ± 2 µM in assay [3]; 37 ± 2 µM in [4]; 31 ± 2 µM in [6]; 23 ± 2 µM in [7]. Further, the concentration for 50% growth inhibition (GI50) is 17.7 ± 0.4 µM in [8], 8.9 ± 0.4 µM in assay [9], > 100 µM in [10] and 9.9 ± 0.5 µM in assay [11].

As to `O=C(CCCc1ccc(N(CCCl)CCCl)cc1)NNC1OC[C@@H](O)[C@H](O)[C@H]1O` (stereo partly drawn) [Compound 75, 4-(4-N′,N′-bis(2-chloroethyl)amino)phenylbutylhydrazido-D-xyloside], the concentration for 50% growth inhibition (GI50) was determined as 3.9 ± 0.2 µM in assay [1]; 26 ± 3 µM in assay [2]; 7.2 ± 0.1 µM in assay [3]; 12 ± 0.5 µM in assay [4]; 14.8 ± 0.7 µM in assay [6]; 19 ± 2 µM in [7]. Moreover, the GI50 was 5.5 ± 0.4 µM in assay [8], 2.5 ± 0.1 µM in [9], > 100 µM in assay [10] and 4.5 ± 0.2 µM in [11].

Consider “N-Hydroxy-4-(4-N′,N′-bis(2-chloroethyl)amino)phenylbutylamino-D-threoside nitrone [Compound 70]”, for which the GI50 in assay [1] is 1.07 ± 0.08 µM; in assay [2], 3.8 ± 0.1 µM; in [3] it was 3.2 ± 0.1 µM; in assay [4], 2.6 ± 0.1 µM; in assay [6], 3 ± 0.2 µM; in [7], 3.6 ± 0.2 µM. Also, the concentration for 50% growth inhibition (GI50) in [8] is 1.7 ± 0.1 µM; in assay [9], 1.2 ± 0.1 µM; in [10], 2.5 ± 0.1 µM; in assay [11], 2 ± 0.1 µM.

For the origin of these results see patent US8552176B2 (priority 2010, dated 2013).
